Structures are written as SMILES.

Type in all cases: cell-based, human
The test system of assay [1] is TNF-alpha. Put plainly: TNF-alpha production by PBMC of healthy volunteers, ELISA. As to the method: In order to quantify the serum cytokines concentration, the extracted blood was stored in tubes both with and without anti-coagulant (collected by antecubital venopunction and arterial catheter, respectively). Blood was allowed to coagulate at room temperature in the laboratory, further separating the serum by centrifugation (600×g during 20 minutes). Supernatant were collected, filtered, divided in aliquotes and stored at −70° C. Concentration assays for different cytokines were performed by using the commercial kits described in Table 2.
Supernatants were unfrozen up to the room temperature and faced against the respective anti-cytokine by fixing them in the plate bottom and incubating them during a variable time. […] The results were assessed with the enzymo-immunoanalysis reader Multititer Plus (Tiertek Multiscan Plus, Flow Laboratories). […]
Effects of compound 12 on TNF-alpha production by PBMC of healthy volunteers in the presence or in the absence of LPS were first investigated. […] Supernatant of cultures were frozen at −20° C. and the concentration of TNF-alpha was quantified with ELISA species-specific (enzyme-linked immunosorbent assay for quantitative detection of tumour necrosis factor-alpha: human TNF-alpha ELISA BM S223/4TEUCE, Bender Med System Inc, Burlinghane Calif. 94010).
In general terms: An ELISA detects its analyte on a solid surface through an enzyme-linked reagent.

Another assay relates to IFN-gamma. Put plainly: IFN-gamma production by PBMC from healthy volunteers, CBA. As to the method:
(§1) CBA protocol was followed according to the manufacturer's instructions. The election of microparticles was performed following the summary of FIG. 1.
(§2) The acquisition on samples was performed with the BD FACS Array Bioanalyser System (FACSArray, Becton Dickinson, San José, Calif., USA) and the analysis of the results was completed with the software FCAP Array (Becton Dickinson) in a PC computer.
Briefly, the experimental protocol consisted of a plate pre-washing out with Wash Buffer. After decantation, the mixture of capture microparticles was re-suspended in the vortex. Standards and samples were added in the adequate dilution. After permanent stirring incubation during 1 h, the PE detection reagent was added and incubated again during 2 h at room temperature. […]
PBMC (5×10^4 cells per well) from 13 healthy volunteers were cultured in duplicate in 200 μl of complete medium supplemented with the highest solvent concentration (10^−6 M), and 10^−6 M, 10^−7 M and 10^−8 M of compound 12 in the presence or absence, either of LPS (10 μg/ml), or anti-CD3 (12.5 ng/ml)+anti-CD28 (⅓×10^5), during 24 hours. Culture supernatants were frozen at −20° C. and the concentration of IFN-gamma was quantified by BD FACS Array Bioanalyser by using CBA Flex Set (Becton Dickinson), specific to determine the concentration of IFN-gamma, following the manufacturer instructions.

The test system of another assay is IL-10. Briefly: IL-10 production by PBMC from patients with rheumatoid arthritis, CBA. As to the method:
as §1, §2
Briefly, the experimental protocol consisted of a plate pre-washing out with Wash Buffer. After decantation, the mixture of capture microparticles was re-suspended in the vortex. Standards and samples were added in the adequate dilution. After permanent stirring incubation during 1 h, the PE detection reagent was added and incubated again during 2 h at room temperature. After a washing-out, the acquisition was performed in the flow cytometer.
On the other hand, PBMC (5×10^4 cells per well) from 8 patients with rheumatoid arthritis were cultured in duplicate in 200 μl of complete medium supplemented with the highest solvent concentration (10^−6 M), and 10^−6 M, 10^−7 M and 10^−8 M of compound 12 in the presence and absence of either LPS (10 μg/ml) or anti-CD3 (12.5 ng/ml), +anti-CD28 (⅓×10^5), during 24 hours. […]

A further assay has as its system CD62L in monocytes. Put plainly: Shedding of CD62L in monocytes of PBMC, flow cytometry. Conditions: healthy volunteers; FIG. 12b. On the procedure: Direct immuno-fluorescence techniques of one colour with monoclonal antibodies phycoerythrin-labeled (PE) was used. PE is a fluorescent substance excitable with a 488 nm laser, which emits at 570 nm, and it is detectable and easily distinguishable by a flow cytometer. By using the antibody described in Table 1, a direct labelling was performed:
PBMC labelling: the process consisted in a labelling using 96 well V bottom plates. In each well, 5×10^4 cells are located, and afterwards centrifugated at 400×g during 5 minutes. After washing-out, cells are re-suspended and 5 μl of the corresponding monoclonal antibody are added. Cells are again re-suspended and the plate is incubated in darkness, during 20 minutes, at 4° C. Subsequently, 150 μl PBS are added and two wash-outs are performed. Finally, it is re-suspended in 150 μl PBS and collected in a cytometer tube, adding PBS up to a final volume of 0.3 ml.
For the counting, a FACSCalibur flow cytometer equipped with argon laser tuned at 488 nm was used in order to induce phycoerythrin fluorescence. The equipment, apart from the fluorescence channels, also provided information about the size (FSC) and cellular complexity (SSC).
As negative controls, the study cells with no labelling and other irrelevant labelled with monoclonal antibodies of equal isotypes than the ones used in the study (IgG1-FITC, PE y TC, IgG2a FITC, PE, TC), were used. […]
(Flow cytometry measures light scatter and fluorescence of single cells or particles in a stream.)

Assay [2] relates to TNF-alpha. Put plainly: TNF-alpha production by PBMC of healthy volunteers, Cytometric Bead Array.

For `Cc1nc(OC2CCCC2)c(-c2ccc(S(C)(=O)=O)cc2)s1` [Compound 12, 4-cyclopentyloxy-5-(4-methylsulfonyl-phenyl)-2-methyl-thiazole], the “Effect on TNF-alpha concentration in the supernatant of LPS-stimulated PBMC” value with TNF-alpha [1] (10^−6 M and 10^−7 M, LPS, p<0.05 vs vehicle, FIG. 2) is reported as “diminished in a statistically significant manner”. The “Effect on spontaneous TNF-alpha production by PBMC” value in the assay with TNF-alpha [1] (10^−6 M, no stimulus) is listed as “lowered the spontaneous TNF-alpha production”. Besides, the “Effect on IFN-gamma production by PBMC, LPS-stimulated or anti-CD3 and anti-CD28 stimulated” value with IFN-gamma (10^−6 M, p<0.05, FIG. 5) is reported as “significantly inhibited”. The “Effect on spontaneous secretion of IFN-gamma by PBMC” value in the assay on IFN-gamma (no stimulus) was “not modified”. In the assay with IL-10, the “Effect on IL-10 production by PBMC, spontaneous or anti-CD3 and anti-CD28 stimulated” value is on record as “no significant effects”. The “Effect on IL-10 production after stimulation with LPS” value with IL-10 (10^−8, p<0.05, FIG. 10) is on record as “significantly inhibited”. Besides, the “Effect on CD62L shedding in monocytes” value in the assay on CD62L in monocytes is recorded as “significant differences were not observed”. Moreover, in the assay on TNF-alpha [2] (10^−6 M, 10^−7 M and 10^−8 M, statistically significant (p<0.05), FIG. 3), the “Effect on TNF-alpha production by PBMC stimulated with LPS” value was “diminished TNF-alpha production”. For the same compound, the “Effect on TNF-alpha secretion by PBMC, anti-CD3 and anti-CD28 stimulated or spontaneous” value in the assay on TNF-alpha [2] (anti-CD3 + anti-CD28, or absence of exogenous stimuli) was “neither TNF-alpha secretion by PBMC stimulated with monoclonal antibodies anti-CD3 and anti-CD28 nor spontaneous one (as observed in the absence of exogenous stimuli) was modified”.

(Values after patent US7781594B2, “5-(4-methanesulfonyl-phenyl)-thiazole derivatives for the treatment of acute and chronic inflammatory diseases” (Faes Farma, S.A., priority 2008, dated 2010).)
